Measurements: patent publication US8975417B2, “Pyrazolopyrrolidine derivatives and their use in the treatment of disease” (Novartis AG, priority 2013, dated 2015)

Legend:
His-Brd4(44-477) = His-Brd4(44-477) (Homo sapiens (Human), UniProt O60885); test: TR-FRET in-vitro binding assay for BRD4; conditions: biochemical
Summary of the method: (§1)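 Bromodomain protein (45 nM in its addition solution) and tetra-acetylated histone H4 peptide (AcK5/8/12/16; 60 nM in its addition solution) were incubated with compounds for 35 min at 30 °C in 50 mM HEPES pH 7.5, 50 mM NaCl, 0.005% Tween20, 0.1% BSA. Eu-anti-His6 plus streptavidin-allophycocyanin detection followed, with TR-FRET read-out.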

K-562 cells = test: Cell growth inhibition assay (CellTiter-Glo), K-562; assay type: cell-based, human; conditions: Homo sapiens, K562, read-out: K-562 TGI
Summary of the method: (§2)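 CTG luminescence (cellular ATP) after compound treatment; values background- and day 0-corrected, vehicle (0.1% DMSO) = 100%, medium only = −100%. Dose range: 3-fold dilutions from 10 μM. IC50/TGI by 4-parameter fit.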

His-Brd3(20-477) = His-Brd3(20-477) (Homo sapiens (Human), UniProt Q15059); test: TR-FRET in-vitro binding assay for BRD3; conditions: biochemical
Chain of His-Brd3(20-477) (Q15059 20-477): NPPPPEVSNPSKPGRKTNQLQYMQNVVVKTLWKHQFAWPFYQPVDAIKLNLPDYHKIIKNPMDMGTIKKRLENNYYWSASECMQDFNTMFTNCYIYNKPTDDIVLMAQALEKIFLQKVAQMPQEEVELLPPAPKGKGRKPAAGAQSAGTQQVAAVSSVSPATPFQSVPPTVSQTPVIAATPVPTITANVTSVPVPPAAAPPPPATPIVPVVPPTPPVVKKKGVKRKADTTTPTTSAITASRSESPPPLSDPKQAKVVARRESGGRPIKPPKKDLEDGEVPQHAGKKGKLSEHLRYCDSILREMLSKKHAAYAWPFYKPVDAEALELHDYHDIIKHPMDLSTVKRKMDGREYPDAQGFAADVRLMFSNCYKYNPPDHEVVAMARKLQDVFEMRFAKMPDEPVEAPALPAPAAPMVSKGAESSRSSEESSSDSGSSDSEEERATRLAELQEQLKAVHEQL
Summary of the method: as §1

THP-1 cells = test: Cell growth inhibition assay (CellTiter-Glo), THP-1; assay type: cell-based; conditions: Homo sapiens, read-out: THP-1 TGI
Summary of the method: as §2

His-Brd2(60-472) = His-Brd2(60-472) (Homo sapiens (Human), UniProt P25440); test: TR-FRET in-vitro binding assay for BRD2; conditions: biochemical
Chain of His-Brd2(60-472) (P25440 60-472): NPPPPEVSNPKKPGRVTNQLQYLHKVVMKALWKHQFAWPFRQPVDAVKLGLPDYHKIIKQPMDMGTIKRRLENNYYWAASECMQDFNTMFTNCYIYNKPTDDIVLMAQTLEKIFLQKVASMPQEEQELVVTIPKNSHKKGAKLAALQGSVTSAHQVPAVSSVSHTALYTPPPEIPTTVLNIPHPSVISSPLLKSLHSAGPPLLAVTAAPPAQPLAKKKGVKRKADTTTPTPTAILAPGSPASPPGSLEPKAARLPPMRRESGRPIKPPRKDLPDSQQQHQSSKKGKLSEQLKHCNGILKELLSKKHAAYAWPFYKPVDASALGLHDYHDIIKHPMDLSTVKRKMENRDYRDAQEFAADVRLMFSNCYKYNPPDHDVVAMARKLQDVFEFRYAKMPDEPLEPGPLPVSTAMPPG
Summary of the method: as §1

MV-4-11 cells = test: Cell growth inhibition assay (CellTiter-Glo), MV-4-11; assay type: cell-based; conditions: Homo sapiens, MV4-11, read-out: MV-4-11 TGI
Summary of the method: as §2

[1] = biological target: nuclear BRD4-NUT foci in HCC2494 NUT midline carcinoma cells (Homo sapiens (Human), UniProt O60885+Q86Y26); test: Nut-foci formation assay; assay type: cell-based; conditions: 24 hours, read-out: HCS Brd4-NUT IC50
Protocol: HCC2494 NUT midline carcinoma cells (expressing BRD4-NUT-fusion) were obtained from the University of Texas Southwestern and cultured in RPMI-1640 medium containing 10% Foetal Calf Serum at 37° C. in a humidified 5% CO2 incubator.
Compound-mediated inhibition of BRD4 activity was monitored by quantification of the number and intensity of nuclear BRD4-NUT foci using automated immunofluorescence microscopy. Briefly, 5000 cells in 20 μL fresh medium were seeded into Poly-D-Lysine-precoated 384-well plates and incubated overnight at 37° C. and 5% CO2, followed by addition of 5 μl medium containing compound dilutions at 5-fold their final intended concentration. Dose-response effects were assessed by 3-fold serial dilutions of the test compound, starting at 10 μM. Following incubation of the cells for 24 hours at 37° C. and 5% CO2, the cells were fixed by incubation with 3.7% formaldehyde for 10 min, followed by immunofluorescence staining using rabbit anti-NUT (Cell Signaling Technologies, Cat#3625) as primary, and AlexaFluor488-labeled goat anti-rabbit (Invitrogen, Cat#A11008) as secondary antibody (latter complemented with 1 μg/mL Hoechst33342 as DNA dye). Assay plates were imaged using the appropriate filter sets on the Cellomics VTi automated fluorescence microscopy platform (ThermoFisher Scientific) and the population average of the number of NUT-foci per nucleus is quantified using the Cellomics Spot Detection BioApplication image analysis algorithm (ThermoFisher Scientific). The effect of a particular test compound concentration on NUT-foci number and intensity is expressed as percentage of the value obtained for cells treated with vehicle only (DMSO, 0.1% final concentration), which was set as 100. Compound concentrations leading to half-maximal (IC50) inhibition of the aforementioned readout parameters were determined using standard four parameter curve fitting.

IC50 (His-Brd4(44-477)) [nM]	IC50 (His-Brd3(20-477)) [nM]	IC50 (His-Brd2(60-472)) [nM]	IC50 [1] [nM]	Compound	IC (total growth inhibition) (K-562 cells) [µM]	IC (total growth inhibition) (THP-1 cells) [µM]	IC (total growth inhibition) (MV-4-11 cells) [µM]
150	140	160	134	CNC(=O)n1nc2c(c1C)C(c1ccc(Cl)cc1)N(c1cc(C)c(=O)n(C)c1)C2=O (centres unmarked) [Example 144, 4-(4-chlorophenyl)-5-(1,5-dimethyl-6-oxo-1,6-dihydropyridin-3-yl)-N,3-dimethyl-6-oxo-5,6-dihydropyrrolo[3,4-c]pyrazole-2(4H)-carboxamide]	> 10	0.361	0.107
150	200	190	91	CNC(=O)n1nc2c(c1C)C(c1ccc(Cl)cc1)N(c1cc(C)c3nnc(C)n3c1)C2=O (centres unmarked) [Example 146, 4-(4-chlorophenyl)-5-(3,8-dimethyl-[1,2,4]triazolo[4,3-a]pyridin-6-yl)-N,3-dimethyl-6-oxo-5,6-dihydropyrrolo[3,4-c]pyrazole-2(4H)-carboxamide]	> 10	0.283	0.0546

Second part, the compound before the results:

Compound	IC50 (His-Brd4(44-477)) [nM]	IC50 (His-Brd3(20-477)) [nM]	IC50 (His-Brd2(60-472)) [nM]	IC50 [1] [nM]	IC (total growth inhibition) (K-562 cells) [µM]	IC (total growth inhibition) (THP-1 cells) [µM]	IC (total growth inhibition) (MV-4-11 cells) [µM]
Cc1cc(N2C(=O)c3nn(C4CN(C)C4)c(C)c3C2c2ccc(Cl)cc2)cn(C)c1=O (centres unmarked) [Example 139, 4-(4-chlorophenyl)-5-(1,5-dimethyl-6-oxo-1,6-dihydropyridin-3-yl)-3-methyl-2-(1-methylazetidin-3-yl)-4,5-dihydropyrrolo[3,4-c]pyrazol-6(2H)-one]	190	120	160	366	> 10	0.399	0.107
CCc1nn(C(=O)N(C)C)c2c1C(c1ccc(Cl)cc1)N(c1cc(C)c(=O)n(C)c1)C2=O (centres unmarked) [Example 147, 4-(4-chlorophenyl)-5-(1,5-dimethyl-6-oxo-1,6-dihydropyridin-3-yl)-3-ethyl-N,N-dimethyl-6-oxo-5,6-dihydropyrrolo[3,4-c]pyrazole-1(4H)-carboxamide]	130	120	140	73.1	> 10	0.365	0.1
CNc1cc(N2C(=O)c3c(c(C)nn3C3CC3)[C@H]2c2ccc(Cl)cc2)nn2c(C)nnc12 [Example 161, (R)-4-(4-chlorophenyl)-1-cyclopropyl-3-methyl-5-(3-methyl-8-(methylamino)-[1,2,4]triazolo[4,3-b]pyridazin-6-yl)-4,5-dihydropyrrolo[3,4-c]pyrazol-6(1H)-one]	21	24	33	40.1	> 10	0.152	0.102
